The values that follow come from patent US20240343717A1, “MICROBIOCIDAL PYRAZOLE DERIVATIVES” (SYNGENTA CROP PROTECTION AG, priority 2021, published 2024).

Test [1] concerns Mycosphaerella graminicola (Septoria tritici). Briefly: Mycosphaerella graminicola (Septoria tritici) / liquid culture (Septoria blotch). The test is classed as cell-based. The settings on record: Zymoseptoria tritici, growth inhibition photometrically 4-5 days after application, read-out: control of Mycosphaerella graminicola. As to the method: Example B16: Mycosphaerella graminicola (Septoria tritici)/Liquid Culture (Septoria Blotch) Conidia of the fungus from cryogenic storage are directly mixed into nutrient broth (PDB potato dextrose broth). After placing a (DMSO) solution of test compound into a microtiter plate (96-well format), the nutrient broth containing the fungal spores is added. The test plates are incubated at 24° C. and the inhibition of growth is determined photometrically 4-5 days after application.

Test [2] has as its system Monographella nivalis (Microdochium nivale). Briefly: Monographella nivalis (Microdochium nivale) / liquid culture (foot rot cereals). The test is classed as cell-based. The note with it: growth inhibition photometrically 4-5 days after application, read-out: control of Monographella nivalis. As to the method: Example B9: Monographella nivalis (Microdochium nivale)/Liquid Culture (Foot Rot Cereals) Conidia of the fungus from cryogenic storage are directly mixed into nutrient broth (PDB potato dextrose broth). After placing a (DMSO) solution of test compound into a microtiter plate (96-well format), the nutrient broth containing the fungal spores is added. The test plates are incubated at 24° C. and the inhibition of growth is determined photometrically 4-5 days after application.

A value given as a limit tells only on which side of the number the result lay.

As for `Cc1ncc(-c2cccc(C(C)(CNC(=O)c3cc(-c4ccc(F)cc4F)on3)c3cnn(C)c3)n2)cc1F` (stereo not shown) [Compound P-97, 5-(2,4-difluorophenyl)-N-[2-[6-(5-fluoro-6-methyl-3-pyridyl)-2-pyridyl]-2-(1-methylpyrazol-4-yl)propyl]isoxazole-3-carboxamide], the inhibition of growth at 20 ppm in test [1] was not below 80%.
For the compound `Cn1cc(C(C)(CNC(=O)c2cc(-c3ccc(F)cc3F)on2)c2cccc(-c3ccnn3C)n2)cn1` (stereo not shown) [Compound P-95, 5-(2,4-difluorophenyl)-N-[2-(1-methylpyrazol-4-yl)-2-[6-(2-methylpyrazol-3-yl)-2-pyridyl]propyl] isoxazole-3-carboxamide], the inhibition of growth at 20 ppm in test [1] and in test [2] was not below 80% throughout.
Turning to `Cc1c(-c2cccc(C(C)(CNC(=O)c3cc(-c4ccc(F)cc4F)on3)c3cnn(C)c3)n2)ccnc1F` (stereo not shown) [Compound P-98, 5-(2,4-difluorophenyl)-N-[2-[6-(2-fluoro-3-methyl-4-pyridyl)-2-pyridyl]-2-(1-methylpyrazol-4-yl)propyl]isoxazole-3-carboxamide], in test [1], the inhibition of growth at 20 ppm was not below 80%.
For the compound `Cn1cc(C(C)(CNC(=O)c2cc(-c3ccc(F)cc3F)on2)c2ccc(N)cn2)cn1` (stereo not shown) [Compound P-58, N-[2-(5-amino-2-pyridyl)-2-(1-methylpyrazol-4-yl)propyl]-5-(2,4-difluorophenyl) isoxazole-3-carboxamide], the inhibition of growth at 20 ppm in test [2] was not below 80%.
As to `Cc1noc(C)c1-c1cccc(C(C)(CNC(=O)c2cc(-c3ccc(F)cc3F)on2)c2cnn(C)c2)n1` (stereo not shown) [Compound P-94, 5-(2,4-difluorophenyl)-N-[2-[6-(3,5-dimethylisoxazol-4-yl)-2-pyridyl]-2-(1-methylpyrazol-4-yl)propyl]isoxazole-3-carboxamide], the inhibition of growth at 20 ppm in test [1] and in test [2] was not below 80% in each case.
Regarding `Cc1cc(C(=O)NCC(C)(c2cnn(C)c2)c2cccc(Cl)n2)no1` (stereo not shown) [Compound P-77, N-[2-(6-chloro-2-pyridyl)-2-(1-methylpyrazol-4-yl)propyl]-5-methyl-isoxazole-3-carboxamide], the inhibition of growth at 20 ppm in test [1] was not below 80%.
In the case of `Cn1cc(C(C)(CNC(=O)c2cc(-c3ccc(F)cc3F)on2)c2cc(Cl)ccn2)cn1` (stereo not shown) [Compound P-18, N-[2-(4-chloro-2-pyridyl)-2-(1-methylpyrazol-4-yl)propyl]-5-(2,4-difluorophenyl) isoxazole-3-carboxamide], the inhibition of growth at 20 ppm in test [1] and in test [2] was not below 80% in each case.
With `COc1cccc(C(C)(CNC(=O)c2cc(-c3ccc(F)cc3OC)on2)c2cnn(C)c2)n1` (stereo not shown) [Compound P-99, 5-(4-fluoro-2-methoxy-phenyl)-N-[2-(6-methoxy-2-pyridyl)-2-(1-methylpyrazol-4-yl)propyl]isoxazole-3-carboxamide], the inhibition of growth at 20 ppm in test [1] is not below 80%.
As to `Cc1cncc(-c2cccc(C(C)(CNC(=O)c3cc(-c4ccc(F)cc4F)on3)c3cnn(C)c3)n2)c1` (stereo not shown) [Compound P-91, 5-(2,4-difluorophenyl)-N-[2-(1-methylpyrazol-4-yl)-2-[6-(5-methyl-3-pyridyl)-2-pyridyl]propyl] isoxazole-3-carboxamide], the inhibition of growth at 20 ppm in test [1] and in test [2] was not below 80% each time.
For `Cn1cc(C(C)(CNC(=O)c2cc(-c3ccc(F)cc3F)on2)c2cc(Br)ccn2)cn1` (stereo not shown) [Compound P-66, N-[2-(4-bromo-2-pyridyl)-2-(1-methylpyrazol-4-yl)propyl]-5-(2,4-difluorophenyl) isoxazole-3-carboxamide], in test [1], the inhibition of growth at 20 ppm is not below 80%.
Still for that read-out and setting: the result for `COc1ccc(C(C)(CNC(=O)c2cc(-c3ccc(F)cc3F)on2)c2cnn(C)c2)nc1Br` (stereo not shown) [Compound P-109, N-[2-(6-bromo-5-methoxy-2-pyridyl)-2-(1-methylpyrazol-4-yl)propyl]-5-(2,4-difluorophenyl) isoxazole-3-carboxamide] reads not below 80%; that for `COc1ccc(C(C)=O)nc1C(C)(CNC(=O)c1cc(-c2ccc(F)cc2F)on1)c1cnn(C)c1` (stereo not shown) [Compound P-112], not below 80%.
